Source: article PMC10387993, “New pyrimidine-N-β-D-glucosides: synthesis, biological evaluation, and molecular docking investigations” (Turkish Journal of Chemistry, 2023)
Values after ≈ are worked out from the molar mass of the structure shown. Like-named read-outs stand apart in the source and are kept apart here. Each block holds one compound with its values, some of them ahead of it.

Experiments:
Assay type in all cases: cell-based
A549 = assay: cells; conditions: Homo sapiens; for LC50 (concentration causing 50% net cell loss): A549, read-out: LC50; for GI50 / IC50 / IC (total growth inhibition): A549, MTT; for IC50: read-out: IC50; for IC (total growth inhibition): read-out: TGI
How it was run: (§1)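 In this MTT proliferation screen, formazan formed over 4 h was read at 560 nm against a 690 nm reference. Each line was tested at least three times, and the IC50 was taken as the concentration inhibiting half of the cells.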

C6 (Rat brain glioma) = assay: cells; conditions: Rattus norvegicus; for LC50 (concentration giving 50% net cell loss relative to time zero): read-out: LC50; for GI50 / IC50 / IC (total growth inhibition): C6, MTT; for IC50: read-out: IC50; for IC (total growth inhibition): read-out: TGI
How it was run: as §1

HT29 = assay: cells; conditions: Homo sapiens; for LC50 (concentration giving 50% net cell loss relative to time zero): HT-29, read-out: LC50; for GI50 / IC50 / IC (total growth inhibition): HT-29, HT29, MTT; for IC50: read-out: IC50; for IC (total growth inhibition): read-out: TGI
How it was run: as §1

HeLa = assay: cells; conditions: Homo sapiens; for GI50 / IC50 / IC (total growth inhibition): MTT; for IC50: read-out: IC50; for IC (total growth inhibition): read-out: TGI; for LC50 (concentration causing 50% net cell loss): read-out: LC50
How it was run: as §1

Hep3B = assay: cells; conditions: Homo sapiens; for GI50 / IC50 / IC (total growth inhibition): MTT; for IC50: read-out: IC50; for IC (total growth inhibition): read-out: TGI; for LC50 (concentration causing 50% net cell loss relative to time zero): read-out: LC50
How it was run: as §1

MCF7 = assay: cells; conditions: Homo sapiens; for LC50 (concentration causing 50% net cell loss relative to time zero): MCF7, read-out: LC50; for GI50 / IC50 / IC (total growth inhibition): MCF7, MTT; for IC50: read-out: IC50; for IC (total growth inhibition): read-out: TGI
How it was run: as §1

in vitro = conditions: human, LC50
How it was run: as §1

normal FL cells = assay: cells; conditions: FL normal cells, MTT; for IC50: read-out: IC50; for IC (total growth inhibition): read-out: TGI
How it was run: as §1

[1] = LDH cytotoxic activity assay, C6; conditions: rat, C6 glioma cells; for cytotoxicity at 24 h, 25 μg/mL: C6, 25 μg/mL; for cytotoxicity at 24 h, 50 μg/mL: C6, 50 μg/mL; for cytotoxicity at 24 h, 75 μg/mL: C6, 75 μg/mL; for cytotoxicity at 24 h, 100 μg/mL: C6, 100 μg/mL
How it was run: (§2)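 Harvest ~80%-confluent cells with trypsin-EDTA, seed ~5 × 10^3 per well in DMEM or RPMI 1640 containing 10% FBS, then add compound at 25–100 μg/mL (four levels) for 24 h at 37 °C. Finish by reading LDH activity at 492–630 nm.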

[2] = LDH cytotoxic activity assay, HeLa; conditions: human, HeLa cells
How it was run: as §2

[3] = LDH cytotoxic activity assay, HT29; conditions: human, HT29 cells; for cytotoxicity at 24 h, 25 μg/mL: HT29, 25 μg/mL; for cytotoxicity at 24 h, 50 μg/mL: HT29, 50 μg/mL; for cytotoxicity at 24 h, 75 μg/mL: HT29, 75 μg/mL; for cytotoxicity at 24 h, 100 μg/mL: HT29, 100 μg/mL
How it was run: as §2

E. coli ATCC 25922 = assay: Microdilution MIC assay; conditions: Escherichia coli, ATCC25922; E. coli ATCC 25922, 24 h at 35 °C
How it was run: (§3)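 Visually scored microwell dilution test (35 °C, 24 h), endpoint no turbidity.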

E. coli ESBL ATCC 35218 = assay: Microdilution MIC assay; conditions: Escherichia coli, ATCC35218; E. coli ESBL ATCC 35218, 24 h at 35 °C
How it was run: as §3

E. faecalis ATCC 29212 = assay: Microdilution MIC assay; conditions: E. faecalis ATCC 29212, 24 h at 35 °C
How it was run: as §3

S. aureus ATCC 25923 = assay: Microdilution MIC assay; conditions: Staphylococcus aureus, ATCC25923, 24 h, S. aureus ATCC 25923, 24 h at 35 °C; read-out: MIC
How it was run: as §3

S. gordonii NCTC 7870 = assay: Microdilution MIC assay; conditions: Streptococcus gordonii, NCTC7870; S. gordonii NCTC 7870, 24 h at 35 °C
How it was run: as §3

S. mutans ATCC 35668 = assay: Microdilution MIC assay; conditions: S. mutans ATCC 35668, 24 h at 35 °C
How it was run: as §3

[4] = Enterococcus faecalis, ATCC29212, 24 h, read-out: MIC
[5] = Streptococcus mutans, ATCC35668, 24 h, read-out: MIC

GI50 (A549): 430 µg/mL (≈ 726 µM) | IC50 (A549): > 500 µg/mL | GI50 (C6 (Rat brain glioma)): > 500 µg/mL | IC50 (C6 (Rat brain glioma)): > 500 µg/mL | GI50 (HT29): 2.28 µg/mL (≈ 3.85 µM) | IC50 (HT29): > 500 µg/mL | GI50 (HeLa): > 500 µg/mL | IC50 (HeLa): > 500 µg/mL | GI50 (Hep3B): 4.9 µg/mL (≈ 8.27 µM) | IC50 (Hep3B): > 500 µg/mL | GI50 (MCF7): 1.95 µg/mL (≈ 3.29 µM) | IC50 (MCF7): > 500 µg/mL | MIC (E. coli ATCC 25922): > 1000 µg/mL | MIC (E. coli ESBL ATCC 35218): > 1000 µg/mL | MIC (E. faecalis ATCC 29212): 31.25 µg/mL (≈ 52.7 µM) | MIC (E. faecalis ATCC 29212; [4]): 31.2 to 125 µg/mL (≈ 52.7 to 211 µM) | MIC (S. aureus ATCC 25923): 500 µg/mL (≈ 844 µM) | MIC (S. gordonii NCTC 7870): > 1000 µg/mL | MIC (S. mutans ATCC 35668): 62.5 µg/mL (≈ 105 µM) | MIC (S. mutans ATCC 35668; [5]): 62.5 to 125 µg/mL (≈ 105 to 211 µM)
Structure (SMILES): CC(=O)OC[C@H]1O[C@@H](Nc2nc(-c3cccnc3)cc(-c3cccc(C)c3)n2)[C@H](OC(C)=O)[C@@H](OC(C)=O)[C@@H]1OC(C)=O [Compound 14, 2,3,4,6-tetra-O-acetyl-N-[4-(3-methylphenyl)-6-pyridin-3-ylpyrimidin-2-yl]-β-D-glucopyranosylamine]
LC50 (concentration causing 50% net cell loss) (A549): > 500 µg/mL | IC (total growth inhibition) (A549): > 500 µg/mL | LC50 (concentration giving 50% net cell loss relative to time zero) (C6 (Rat brain glioma)): > 500 µg/mL | IC (total growth inhibition) (C6 (Rat brain glioma)): > 500 µg/mL | LC50 (concentration giving 50% net cell loss relative to time zero) (HT29): > 500 µg/mL | IC (total growth inhibition) (HT29): > 500 µg/mL | IC (total growth inhibition) (HeLa): > 500 µg/mL | LC50 (concentration causing 50% net cell loss) (HeLa): > 500 µg/mL | IC (total growth inhibition) (Hep3B): > 500 µg/mL | LC50 (concentration causing 50% net cell loss relative to time zero) (Hep3B): > 500 µg/mL | LC50 (concentration causing 50% net cell loss relative to time zero) (MCF7): > 500 µg/mL | IC (total growth inhibition) (MCF7): > 500 µg/mL | LC50 (concentration causing 50% net cell loss) (in vitro): > 500 µg/mL | GI50 (normal FL cells): 118 µg/mL (≈ 199 µM) | IC50 (normal FL cells): > 500 µg/mL | IC (total growth inhibition) (normal FL cells): > 500 µg/mL | cytotoxicity at 24 h, 25 μg/mL [1]: 18.4% | cytotoxicity at 24 h, 50 μg/mL [1]: 35.3% | cytotoxicity at 24 h, 75 μg/mL [1]: 70.2% | cytotoxicity at 24 h, 100 μg/mL [1]: 86.7% | cytotoxicity at 24 h, 25 μg/mL [2]: 16.6% | cytotoxicity at 24 h, 50 μg/mL [2]: 28.8% | cytotoxicity at 24 h, 75 μg/mL [2]: 33.5% | cytotoxicity at 24 h, 100 μg/mL [2]: 48.8% | cytotoxicity at 24 h, 25 μg/mL [3]: 21% | cytotoxicity at 24 h, 50 μg/mL [3]: 44.6% | cytotoxicity at 24 h, 75 μg/mL [3]: 61.8% | cytotoxicity at 24 h, 100 μg/mL [3]: 72.2%

GI50 (A549): > 500 µg/mL | IC50 (A549): > 500 µg/mL | GI50 (C6 (Rat brain glioma)): 2.21 µg/mL (≈ 3.73 µM) | IC50 (C6 (Rat brain glioma)): 11.2 µg/mL (≈ 19 µM) | GI50 (HT29): 5 µg/mL (≈ 8.44 µM) | IC50 (HT29): > 500 µg/mL | GI50 (HeLa): > 500 µg/mL | IC50 (HeLa): > 500 µg/mL | GI50 (Hep3B): 5.55 µg/mL (≈ 9.37 µM) | IC50 (Hep3B): > 500 µg/mL | GI50 (MCF7): 4.1 µg/mL (≈ 6.92 µM) | IC50 (MCF7): > 500 µg/mL | MIC (E. coli ATCC 25922): > 1000 µg/mL | MIC (E. coli ESBL ATCC 35218): > 1000 µg/mL | MIC (E. faecalis ATCC 29212): 31.25 µg/mL (≈ 52.7 µM) | MIC (E. faecalis ATCC 29212; [4]): 31.2 to 125 µg/mL (≈ 52.7 to 211 µM) | MIC (S. aureus ATCC 25923): 500 µg/mL (≈ 844 µM) | MIC (S. gordonii NCTC 7870): > 1000 µg/mL | MIC (S. mutans ATCC 35668): 62.5 µg/mL (≈ 105 µM) | MIC (S. mutans ATCC 35668; [5]): 62.5 to 125 µg/mL (≈ 105 to 211 µM)
Structure (SMILES): CC(=O)OC[C@H]1O[C@@H](Nc2nc(-c3ccncc3)cc(-c3cccc(C)c3)n2)[C@H](OC(C)=O)[C@@H](OC(C)=O)[C@@H]1OC(C)=O [Compound 15, 2,3,4,6-tetra-O-acetyl-N-[4-(3-methylphenyl)-6-pyridin-4-ylpyrimidin-2-yl]-β-D-glucopyranosylamine]
LC50 (concentration causing 50% net cell loss) (A549): > 500 µg/mL | IC (total growth inhibition) (A549): > 500 µg/mL | LC50 (concentration giving 50% net cell loss relative to time zero) (C6 (Rat brain glioma)): 71.2 µg/mL (≈ 120 µM) | IC (total growth inhibition) (C6 (Rat brain glioma)): 6.3 µg/mL | LC50 (concentration giving 50% net cell loss relative to time zero) (HT29): > 500 µg/mL | IC (total growth inhibition) (HT29): > 500 µg/mL | IC (total growth inhibition) (HeLa): > 500 µg/mL | LC50 (concentration causing 50% net cell loss) (HeLa): > 500 µg/mL | IC (total growth inhibition) (Hep3B): > 500 µg/mL | LC50 (concentration causing 50% net cell loss relative to time zero) (Hep3B): > 500 µg/mL | LC50 (concentration causing 50% net cell loss relative to time zero) (MCF7): > 500 µg/mL | IC (total growth inhibition) (MCF7): > 500 µg/mL | LC50 (concentration causing 50% net cell loss) (in vitro): > 500 µg/mL | GI50 (normal FL cells): 26.7 µg/mL (≈ 45 µM) | IC50 (normal FL cells): > 500 µg/mL | IC (total growth inhibition) (normal FL cells): > 500 µg/mL | cytotoxicity at 24 h, 25 μg/mL [1]: 20.4% | cytotoxicity at 24 h, 50 μg/mL [1]: 55% | cytotoxicity at 24 h, 75 μg/mL [1]: 77.1% | cytotoxicity at 24 h, 100 μg/mL [1]: 83.3% | cytotoxicity at 24 h, 25 μg/mL [2]: 18.4% | cytotoxicity at 24 h, 50 μg/mL [2]: 31.7% | cytotoxicity at 24 h, 75 μg/mL [2]: 37.1% | cytotoxicity at 24 h, 100 μg/mL [2]: 56% | cytotoxicity at 24 h, 25 μg/mL [3]: 23.8% | cytotoxicity at 24 h, 50 μg/mL [3]: 45% | cytotoxicity at 24 h, 75 μg/mL [3]: 62.6% | cytotoxicity at 24 h, 100 μg/mL [3]: 78.6%
